Source: article PMC8463110 (Bioorganic & medicinal chemistry, 2013)

Experiments:
[1] = system: cocaine-induced convulsions in Swiss Webster mice; assay: Cocaine-induced convulsions; format: in vivo; details: 30 mg/kg ip (highest dose tested), 15 min before cocaine 70 mg/kg ip, p < 0.05 Fisher's exact test
[2] = target: human μ opioid receptor (Homo sapiens, UniProt P35372); assay: Opioid receptor binding, [3H]DAMGO displacement, CHO cell membranes; details: 1.3 nM [3H]DAMGO, 120 min 25 °C
[3] = system: mice; details: ref unpublished finding, R.R. Matsumoto, Morgantown, WV; cited from earlier work
[4] = system: behavioral and neurotoxic effects of cocaine in mice; details: cited from earlier work

human μ opioid receptor, sequence (P35372 whole entry): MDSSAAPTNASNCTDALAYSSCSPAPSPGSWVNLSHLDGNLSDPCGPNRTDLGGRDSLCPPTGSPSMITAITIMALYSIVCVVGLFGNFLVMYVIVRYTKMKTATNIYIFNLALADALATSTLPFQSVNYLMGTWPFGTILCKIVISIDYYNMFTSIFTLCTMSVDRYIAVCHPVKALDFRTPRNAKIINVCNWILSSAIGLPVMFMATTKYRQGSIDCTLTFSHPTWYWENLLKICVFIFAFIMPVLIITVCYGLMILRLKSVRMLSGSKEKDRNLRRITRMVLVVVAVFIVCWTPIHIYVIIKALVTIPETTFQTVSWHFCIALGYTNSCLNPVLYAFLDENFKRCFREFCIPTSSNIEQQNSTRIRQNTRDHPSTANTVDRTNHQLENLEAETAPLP

Structure (SMILES)	Attenuation of cocaine-induced convulsions [1]	Opioid binding Ki ± SEM, μ [2]	Therapeutic window / deaths at supratherapeutic doses [3]	Effect on behavioral and neurotoxic effects of cocaine [4]
CN(CCc1ccccc1)[C@H]1CCCC[C@@H]1O (relative stereo) [Compound 6, trans-2-(Methyl(phenethyl)amino)cyclohexanol]	significant attenuation of cocaine-induced convulsions	no affinity		
c1ccc(CCN2CCCCC2)cc1 [AC927, N-phenethylpiperidine]			relatively narrow therapeutic window, which can result in deaths in mice at supratherapeutic doses	attenuated the behavioral and neurotoxic effects of cocaine in mice
